Results on 29 compounds are retold here after patent US9469615B2, “Quinoxalines and AZA-quinoxalines as CRTH2 receptor modulators” (Merck Sharp & Dohme Corp., priority 2010, dated 2016).

In the assay the target is T1, hCRTH2 (Homo sapiens, UniProt Q9Y5Y4).
T1 construct: expressed in transfected cells; host or cells: HEK (human embryonic kidney) cells expressing hCRTH2; membrane preparation
T1 sequence (Q9Y5Y4 1-395): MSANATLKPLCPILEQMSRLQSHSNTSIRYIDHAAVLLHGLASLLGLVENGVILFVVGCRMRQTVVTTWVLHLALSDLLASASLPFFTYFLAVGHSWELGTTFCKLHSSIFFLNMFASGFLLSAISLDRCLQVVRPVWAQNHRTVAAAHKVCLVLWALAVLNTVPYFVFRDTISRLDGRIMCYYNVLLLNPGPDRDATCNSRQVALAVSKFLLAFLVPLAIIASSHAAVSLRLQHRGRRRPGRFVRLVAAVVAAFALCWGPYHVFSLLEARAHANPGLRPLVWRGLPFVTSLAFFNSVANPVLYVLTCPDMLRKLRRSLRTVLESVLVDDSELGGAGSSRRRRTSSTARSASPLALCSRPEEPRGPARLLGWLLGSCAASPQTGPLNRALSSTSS
Kind of assay: Radioligand binding assay ([3H]PGD2 competition, HEK-hCRTH2 membranes). The gist of the method: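 Using membranes of an HEK line stably carrying hCRTH2, ligands were tested against [3H]PGD2 (3.0 nM) in pH 7.4 Tris buffer containing 2 mM MnCl2 and 1 mM EDTA. After one hour at room temperature, filters were washed cold and counted.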

The structures appear in SMILES notation.

Turning to `C[C@@H](NC(=O)c1ccc2nc(-c3ccc(Cl)cc3)c(CCCCC(=O)O)nc2c1)c1ccc2ccccc2c1` [compound 495, (R)-5-(3-(4-chlorophenyl)-7-((1-(naphthalen-2-yl)ethyl)carbamoyl)quinoxalin-2-yl)pentanoic acid], the Ki ([3H]PGD2 competition, Table B) is 2.1 to 20 nM.
On the same count and under the same terms, for `C[C@H](NC(=O)c1ccc2nc(-c3ccc(Cl)cc3)c(CCCCC(=O)O)nc2c1)c1ccc2ccccc2c1` [compound 496, (S)-5-(3-(4-chlorophenyl)-7-((1-(naphthalen-2-yl)ethyl)carbamoyl)quinoxalin-2-yl)pentanoic acid] the value was 2.1 to 20 nM; for `C[C@H]1CN(c2ccc(F)cc2)CCN1C(=O)c1ccc2nc(-c3ccc(F)cc3)c(CCCCC(=O)O)nc2c1` [compound 497, (S)-5-(3-(4-fluoro-phenyl)-7-(4-(4-fluorophenyl)-2-methylpiperazine-1-carbonyl)quinoxalin-2-yl)pentanoic acid], 2.1 to 20 nM.
On the same count and under the same terms, with `C[C@@H]1CN(c2ccccc2)CCN1C(=O)c1ccc2nc(-c3ccc(Cl)cc3)c(CCCCC(=O)O)nc2c1` [compound 498, (R)-5-(3-(4-chlorophenyl)-7-(2-methyl-4-phenyl-piperazine-1-carbonyl)quinoxalin-2-yl)pentanoic acid] the figure was 2.1 to 20 nM.
On the same count and under the same terms, for `C[C@@H]1CN(c2ccccc2)CCN1C(=O)c1ccc2nc(-c3ccc(F)cc3)c(CCCCC(=O)O)nc2c1` [compound 499, (R)-5-(3-(4-fluorophenyl)-7-(2-methyl-4-phenyl-piperazine-1-carbonyl)quinoxalin-2-yl)pentanoic acid] the value was 2.1 to 20 nM; for `O=C(N[C@@H]1CCCc2ccccc21)c1ccc2nc(-c3ccc(F)cc3)c(CC[C@@H]3C[C@H]3C(=O)O)nc2c1` [compound 500, (1R,2R)-2-(2-(3-(4-fluorophenyl)-7-(((R)-1,2,3,4-tetrahydronaphthalen-1-yl)carbamoyl)quinoxalin-2-yl)ethyl)cyclopropane-carboxylic acid], 2.1 to 20 nM.
On to `O=C(N[C@@H]1CCCc2ccccc21)c1ccc2nc(-c3ccc(F)cc3)c(CCC3CC3C(=O)O)nc2c1` (stereo partly drawn) [compound 501, 2-(2-(3-(4-fluorophenyl)-7-(((R)-1,2,3,4-tetrahydronaphthalen-1-yl)carbamoyl)quinoxalin-2-yl)ethyl)cyclopropane-carboxylic acid], for which the Ki ([3H]PGD2 competition, Table B) lay within 20.1 to 200 nM.
In turn, `O=C(O)CCCCc1nc2cc(C(=O)NC3CCCc4cc(C(F)(F)F)cnc43)ccc2nc1-c1ccccc1` (stereo not drawn) [compound 502, 5-(3-phenyl-7-((3-(trifluoromethyl)-5,6,7,8-tetrahydroquinolin-8-yl)carbamoyl)quinoxalin-2-yl)pentanoic acid] had a Ki ([3H]PGD2 competition, Table B) of 20.1 to 200 nM.
The same measure, in the same setting: with `O=C(O)CCCCc1nc2cc(C(=O)N[C@@H]3CCCc4ncccc43)ccc2nc1-c1ccccc1` [compound 503, (R)-5-(3-phenyl-7-((5,6,7,8-tetrahydroquinolin-5-yl)carbamoyl)quinoxalin-2-yl)pentanoic acid] the figure was 20.1 to 200 nM; with `O=C(O)CCCCc1nc2cc(C(=O)N[C@H]3CCCc4ncccc43)ccc2nc1-c1ccccc1` [compound 504, (S)-5-(3-phenyl-7-((5,6,7,8-tetrahydroquinolin-5-yl)carbamoyl)quinoxalin-2-yl)pentanoic acid], 2.1 to 20 nM; with `O=C(O)CCCCc1nc2cc(C(=O)NC3CCCc4cnccc43)ccc2nc1-c1ccccc1` (stereo not drawn) [compound 505, 5-(3-phenyl-7-((5,6,7,8-tetrahydroisoquinolin-5-yl)carbamoyl)quinoxalin-2-yl)pentanoic acid], 2.1 to 20 nM.
The same measure, in the same setting: for `O=C(O)CCCCc1nc2cc(C(=O)N[C@@H]3CCOc4ccccc43)ccc2nc1-c1ccc(Cl)cc1` [compound 506] the value was 0.1 to 2 nM.
`O=C(O)CCCCc1nc2cc(C(=O)N[C@H]3CCOc4ccccc43)ccc2nc1-c1ccc(Cl)cc1` [compound 507, (S)-5-(3-(4-chlorophenyl)-7-(chroman-4-ylcarbamoyl)quinoxalin-2-yl)pentanoic acid]: the Ki ([3H]PGD2 binding, values in text) is 1.3 nM and the Ki ([3H]PGD2 competition, Table B) lay in the range of 0.1 to 2 nM.
Under “[3H]PGD2 competition, Table B”, `O=C(O)CCCCc1nc2cc(C(=O)N[C@H]3c4ccccc4C[C@H]3O)ccc2nc1-c1ccc(F)cc1` [compound 508, 5-(3-(4-fluorophenyl)-7-(((1S,2R)-2-hydroxy-2,3-dihydro-1H-inden-1-yl)carbamoyl)quinoxalin-2-yl)pentanoic acid] yielded an inhibitory constant (Ki) of 2.1 to 20 nM.
On the same count and under the same terms, with `O=C(O)CCCCc1nc2cc(C(=O)N[C@@H]3c4ccccc4C[C@@H]3O)ccc2nc1-c1ccc(F)cc1` [compound 509, 5-(3-(4-fluorophenyl)-7-(((1R,2S)-2-hydroxy-2,3-dihydro-1H-inden-1-yl)carbamoyl)quinoxalin-2-yl)pentanoic acid] the figure was 20.1 to 200 nM.
Under “[3H]PGD2 competition, Table B”, `O=C(O)CCCCc1nc2cc(C(=O)N[C@@H]3c4ccccc4C[C@H]3O)ccc2nc1-c1ccc(F)cc1` [compound 510, 5-(3-(4-fluorophenyl)-7-(((1R,2R)-2-hydroxy-2,3-dihydro-1H-inden-1-yl)carbamoyl)quinoxalin-2-yl)pentanoic acid] had an inhibition constant Ki of 20.1 to 200 nM.
Same read-out and setting: with `O=C(O)CCCCc1nc2cc(C(=O)N[C@H]3c4ccccc4C[C@@H]3O)ccc2nc1-c1ccc(F)cc1` [compound 511, 5-(3-(4-fluorophenyl)-7-(((1S,2S)-2-hydroxy-2,3-dihydro-1H-inden-1-yl)carbamoyl)quinoxalin-2-yl)pentanoic acid] the figure was 2.1 to 20 nM; with `O=C(O)CCCCc1nc2cc(C(=O)N[C@@H]3CCOc4ccccc43)ccc2nc1-c1ccccc1` [compound 512, (R)-5-(7-(chroman-4-ylcarbamoyl)-3-phenylquinoxalin-2-yl)pentanoic acid], 0.1 to 2 nM.
Regarding `O=C(O)CCCCc1nc2cc(C(=O)N[C@H]3CCOc4ccccc43)ccc2nc1-c1ccccc1` [compound 513, (S)-5-(7-(chroman-4-ylcarbamoyl)-3-phenylquinoxalin-2-yl)pentanoic acid], the Ki ([3H]PGD2 competition, Table B) is 0.1 to 2 nM.
Consider `C[C@H]1CN(c2ccccc2)CCN1C(=O)c1ccc2nc(-c3ccc(Cl)cc3)c(CCCCC(=O)O)nc2c1` [compound 514, (S)-5-(3-(4-chlorophenyl)-7-(2-methyl-4-phenyl-piperazine-1-carbonyl)quinoxalin-2-yl)pentanoic acid], for which the Ki ([3H]PGD2 competition, Table B) is 2.1 to 20 nM.
The same measure, in the same setting: for `C[C@H]1CN(c2ccccc2)CCN1C(=O)c1ccc2nc(-c3ccc(F)cc3)c(CCCCC(=O)O)nc2c1` [compound 515, (S)-5-(3-(4-fluorophenyl)-7-(2-methyl-4-phenylpiperazine-1-carbonyl)quinoxalin-2-yl)pentanoic acid] the value was 2.1 to 20 nM.
`C[C@H]1CN(c2ccc(F)cc2)CCN1C(=O)c1ccc2nc(-c3ccccc3)c(CCCCC(=O)O)nc2c1` [compound 516, (S)-5-(7-(4-(4-fluorophenyl)-2-methylpiperazine-1-carbonyl)-3-phenylquinoxalin-2-yl)pentanoic acid]: the Ki ([3H]PGD2 competition, Table B) was in the range of 2.1 to 20 nM.
`C[C@@H](CCCc1nc2cc(C(=O)N[C@H](C)c3ccc(Cl)cc3)ccc2nc1-c1ccc(F)cc1)C(=O)O` [compound 517, (S)-5-(7-(((R)-1-(4-chlorophenyl)ethyl)carbamoyl)-3-(4-fluorophenyl)quinoxalin-2-yl)-2-methyl-pentanoic acid] came in with a Ki ([3H]PGD2 competition, Table B) of 2.1 to 20 nM.
For the setting “[3H]PGD2 competition, Table B”, `C[C@@H](CCCc1nc2cc(C(=O)N[C@@H]3CCCc4cc(F)ccc43)ccc2nc1-c1ccc(F)cc1)C(=O)O` [compound 518, (S)-5-(7-(((R)-6-fluoro-1,2,3,4-tetrahydronaphthalen-1-yl)carbamoyl)-3-(4-fluorophenyl)quinoxalin-2-yl)-2-methylpentanoic acid] returned an inhibition constant Ki of 2.1 to 20 nM.
Same read-out and setting: for `C[C@@H](CCCc1nc2cc(C(=O)N[C@@H]3CCCc4cc(Cl)ccc43)ccc2nc1-c1ccc(F)cc1)C(=O)O` [compound 519, (S)-5-(7-(((R)-6-chloro-1,2,3,4-tetrahydronaphthalen-1-yl)carbamoyl)-3-(4-fluorophenyl)quinoxalin-2-yl)-2-methylpentanoic acid] the value was 2.1 to 20 nM; for `C[C@@H](CCCc1nc2cc(C(=O)N[C@@H]3CCOc4ccccc43)ccc2nc1-c1ccc(F)cc1)C(=O)O` [compound 520, (S)-5-(7-((R)-chroman-4-ylcarbamoyl)-3-(4-fluorophenyl)quinoxalin-2-yl)-2-methylpentanoic acid], 2.1 to 20 nM.
Same read-out and setting: with `C[C@@H](CCCc1nc2cc(C(=O)N[C@@H]3CCCc4ncccc43)ccc2nc1-c1ccc(F)cc1)C(=O)O` [compound 521, (S)-5-(3-(4-fluorophenyl)-7-(((R)-5,6,7,8-tetrahydroquinolin-5-yl)carbamoyl)quinoxalin-2-yl)-2-methylpentanoic acid] the figure was 20.1 to 200 nM.
The same measure, in the same setting: with `C[C@@H](CCCc1nc2cc(C(=O)N[C@@H]3CCc4cc(Cl)ccc43)ccc2nc1-c1ccc(F)cc1)C(=O)O` [compound 522, (S)-5-(7-(((R)-5-chloro-2,3-dihydro-1H-inden-1-yl)carbamoyl)-3-(4-fluorophenyl)quinoxalin-2-yl)-2-methylpentanoic acid] the figure was 2.1 to 20 nM.
As to `C[C@@H](CCCc1nc2cc(C(=O)N[C@@H]3CCc4cc(F)ccc43)ccc2nc1-c1ccc(F)cc1)C(=O)O` [compound 523, (S)-5-(7-(((R)-5-fluoro-2,3-dihydro-1H-inden-1-yl)carbamoyl)-3-(4-fluorophenyl)quinoxalin-2-yl)-2-methylpentanoic acid], the Ki ([3H]PGD2 competition, Table B) fell in the range of 2.1 to 20 nM.
